Laboratory results: publication PMC4474874, “Effect of JAK Inhibitors on Release of CXCL9, CXCL10 and CXCL11 from Human Airway Epithelial Cells” (PLoS ONE, 2015)

How the values were obtained:
BEAS-2B cells [1] = experiment: Release of CXCL9, CXCL10 and CXCL11 from BEAS-2B cells (ELISA), inhibitors added 1h before stimulus; type: cell-based, human; details: BEAS-2B
Procedure: (§1) BEAS-2B cells (catalogue number CRL-9609) were purchased directly from American Type Culture Collection (Rockville, MD). Keratinocyte serum-free medium (K-SFM), bovine pituitary extract (BPE), and recombinant human epidermal growth factor (EGF) were purchased from Invitrogen (Paisley, UK). BEAS-2B cells were cultured in K-SFM containing 50 μg/ml BPE and 5 ng/ml EGF at 37°C in a humidified atmosphere comprising 5% (v/v) CO2 in air. Cells were cultured as monolayers in growth factor-free media for 24 h prior to stimulation. Human primary airway epithelial cells were cultured as monolayers from bronchial brushings from both male and female subjects (Table 1) and cultured in LHC-9 media (Invitrogen, Paisley, UK) in collagen (1% w/v) coated flasks. Samples were obtained from non-smokers, smokers and patients with COPD. […] The subjects were matched for age and smokers and COPD patients for smoking history (Table 1). All subjects gave informed written consent and the study was approved by the NRES London-Chelsea Research Ethics committee, study number 09/H0801/85.
(§2) Cell-free supernatants were removed 20h post-stimulation and assayed for CXCL9, CXCL10 and CXCL11 using Duoset ELISA kits (R & D Systems Europe, Abingdon, UK) according to the manufacturer’s instructions. The detection limits of these assays are 62pg/ml, 31pg/ml, and 7.8 pg/ml respectively.
(§3) Data are presented as mean ± SEM of ‘n’ independent determinations. Concentration-response curves were analysed by least-squares, non-linear iterative regression with the ‘Graphpad Prism’ curve fitting program (GraphPad software, San Diego, USA) and IC50 values were subsequently interpolated from curves of best-fit. Statistical differences were determined using the Kruskal–Wallis test followed by Dunn's multiple comparison test or a Wilcoxon signed rank test as appropriate. Values of P<0.05 were considered significant.
Media was harvested and the concentrations of CXCL9 (panels a and d), CXCL10 (panels b and e) and CXCL11 (panels c and f) were measured by ELISA. Data are presented as mean±SEM, n = 7–8.

[2] = test system: human primary airway epithelial cells; experiment: Release of CXCL9, CXCL10 and CXCL11 from human primary airway epithelial cells (ELISA); type: cell-based; details: human primary airway epithelial cells, IFNγ or IFNγ+TNFα
Procedure: as §1, §2, §3
Media was harvested and the concentrations of CXCL9 (panels a and d), CXCL10 (panels b and e) and CXCL11 (panels c and f) were measured by ELISA. Data are presented as mean ± SEM, n = 10–13.

BEAS-2B cells [3] = experiment: IL-6 release from IFNγ + TNFα-stimulated BEAS-2B cells; type: cell-based, human
Procedure: (§4) In order to determine whether any of the inhibitory effects of the JAK inhibitors could be attributed to cell death, MTT assays were performed at the end of every experiment. […] In order to address this issue, the levels of IL-6 released from cells stimulated with IFNγ + TNFα were measured.

[4] = test system: human primary airway epithelial cells; experiment: IL-6 release from IFNγ + TNFα-stimulated human primary airway epithelial cells; type: cell-based; details: IFNγ + TNFα
Procedure: as §4

BEAS-2B cells [5] = experiment: mRNA expression of CXCL9, CXCL10 and CXCL11 in BEAS-2B cells (Taqman RT-PCR); type: cell-based, human; details: BEAS-2B, 10^-6M, IFNγ or IFNγ + TNFα
Procedure: Total RNA was extracted from cells and reverse transcribed, as described previously. Gene expression was determined by Taqman real-time PCR on a 7500 Real Time PCR system (Applied Biosystems, Life Technologies Ltd, Paisley, UK) using PCR Master Mix Reagent and ‘assays on demand’ (Applied Biosystems). HPRT1 gene expression was used as the housekeeping gene and data presented as δδCT relative to baseline.
Gene expression of CXCL9 (panels a and b), CXCL10 (panels c and d) and CXCL11 (panels e and f) were quantified by Taqman RT-PCR. Data are presented as fold change form stimulus ± SEM; n = 3 where 1 indicates the level of mRNA induced by IFNγ or IFNγ + TNFα in the absence of inhibitors.

- IC50 ([4]; Homo sapiens, Epithelial cell): 11 ± 7 nM
SMILES: C[C@@H]1C[C@H]2[C@@H]3CCC4=CC(=O)C=C[C@]4(C)[C@@]3(F)[C@@H](O)C[C@]2(C)[C@@]1(O)C(=O)CO [dexamethasone]
- effect on CXCL9 and CXCL11 release (BEAS-2B cells [1]; IFNγ or IFNγ+TNFα): very limited effect
- maximal inhibitory effect on release of CXCL10 (BEAS-2B cells [1]; IFNγ-stimulated): ~ 50%
- inhibitory effect on release of CXCL10 (BEAS-2B cells [1]; stimulation with IFNγ and TNFα together): none
- effect on CXCR3 chemokine release [2]: did not suppress
- suppression of IL-6 release (BEAS-2B cells [3]): 50–70%
- IC50 (BEAS-2B cells [3]; Homo sapiens): 16 ± 8 nM
- suppression of IL-6 release [4]: 50–70%
- effect on gene transcription of CXCL9, CXCL10 and CXCL11 (BEAS-2B cells [5]): no effect on gene transcription
